These results are taken from patent US11964967B2, “Cardiac sarcomere inhibitors” (Cytokinetics, Inc., priority 2018, dated 2024).

The target in the test is T1, bovine cardiac myofibrils (Bos taurus, UniProt Q9BE39).
T1 construct: full-length cardiac myosin in the context of the native sarcomere; from tissue; host or cells: bovine cardiac left ventricular tissue, homogenized with detergent (triton X-100)
In words: Skinned bovine cardiac myofibril ATPase assay (PK/LDH-coupled). It is filed as biochemical. The note with it: inhibition of steady-state ATPase activity of bovine cardiac myofibrils, calcium at 75% activation (pCa75), PM12 buffer pH 6.8; for IC50: read-out: CDMF75 IC50. On the procedure:
To evaluate the effect of compounds on the ATPase activity of full-length cardiac myosin in the context of the native sarcomere, skinned myofibril assays were performed. Bovine cardiac myofibrils were obtained by homogenizing bovine cardiac left ventricular tissue in the presence of a detergent such as triton X-100. Such treatment removes membranes and a majority of the soluble cytoplasmic proteins but leaves intact the cardiac sarcomeric acto-myosin apparatus. Myofibril preparations retain the ability to hydrolyze ATP in an Ca^2+ regulated manner ATPase activities of such myofibril preparations in the presence and absence of compounds were assayed at Ca^2+ concentrations activating to a defined fraction of the maximal rate (i.e., 25%, 75%). Small molecule agents were assessed for their ability to inhibit the steady-state ATPase activity of bovine cardiac myofibrils using pyruvate kinase and lactate dehydrogenase (PK/LDH)-coupled enzyme system. This assay regenerates myosin-produced ADP into ATP by oxidizing NADH, producing an absorbance change at 340 nm. Prior to testing small molecule agents, the bovine cardiac myofibrils were assessed for their calcium responsiveness and the calcium concentration that achieves either a 50% (pCa50) or 75% (pCa75) activation of the myofibril system was chosen as the final condition for assessing the inhibitory activity of the small molecule agents. All enzymatic activity was measured in a buffered solution containing 12 mM PIPES (piperazine-N,N′-bis(2-ethanesulfonic acid), 2 mM magnesium chloride at pH 6.8 (PM 12 buffer). Final assay conditions were 1 mg/mL of bovine cardiac myofibrils, 4 U/mL pyruvate kinase, 6 U/mL lactate dehydrogenase, 50 μM ATP, 0.1 mg/mL BSA (bovine serum albumin), 10 ppm antifoam, 1 mM DTT, 0.5 mM NADH, 1.5 mM PEP, 0.6 mM EGTA, and an amount of CaCl2) sufficient to achieve either 50% or 75% activation of the myofibril ATPase activity. Results for compounds tested are provided in Table A. Compounds tested were prepared in accordance with the synthetic procedures described herein.

T1 sequence (Q9BE39 whole entry): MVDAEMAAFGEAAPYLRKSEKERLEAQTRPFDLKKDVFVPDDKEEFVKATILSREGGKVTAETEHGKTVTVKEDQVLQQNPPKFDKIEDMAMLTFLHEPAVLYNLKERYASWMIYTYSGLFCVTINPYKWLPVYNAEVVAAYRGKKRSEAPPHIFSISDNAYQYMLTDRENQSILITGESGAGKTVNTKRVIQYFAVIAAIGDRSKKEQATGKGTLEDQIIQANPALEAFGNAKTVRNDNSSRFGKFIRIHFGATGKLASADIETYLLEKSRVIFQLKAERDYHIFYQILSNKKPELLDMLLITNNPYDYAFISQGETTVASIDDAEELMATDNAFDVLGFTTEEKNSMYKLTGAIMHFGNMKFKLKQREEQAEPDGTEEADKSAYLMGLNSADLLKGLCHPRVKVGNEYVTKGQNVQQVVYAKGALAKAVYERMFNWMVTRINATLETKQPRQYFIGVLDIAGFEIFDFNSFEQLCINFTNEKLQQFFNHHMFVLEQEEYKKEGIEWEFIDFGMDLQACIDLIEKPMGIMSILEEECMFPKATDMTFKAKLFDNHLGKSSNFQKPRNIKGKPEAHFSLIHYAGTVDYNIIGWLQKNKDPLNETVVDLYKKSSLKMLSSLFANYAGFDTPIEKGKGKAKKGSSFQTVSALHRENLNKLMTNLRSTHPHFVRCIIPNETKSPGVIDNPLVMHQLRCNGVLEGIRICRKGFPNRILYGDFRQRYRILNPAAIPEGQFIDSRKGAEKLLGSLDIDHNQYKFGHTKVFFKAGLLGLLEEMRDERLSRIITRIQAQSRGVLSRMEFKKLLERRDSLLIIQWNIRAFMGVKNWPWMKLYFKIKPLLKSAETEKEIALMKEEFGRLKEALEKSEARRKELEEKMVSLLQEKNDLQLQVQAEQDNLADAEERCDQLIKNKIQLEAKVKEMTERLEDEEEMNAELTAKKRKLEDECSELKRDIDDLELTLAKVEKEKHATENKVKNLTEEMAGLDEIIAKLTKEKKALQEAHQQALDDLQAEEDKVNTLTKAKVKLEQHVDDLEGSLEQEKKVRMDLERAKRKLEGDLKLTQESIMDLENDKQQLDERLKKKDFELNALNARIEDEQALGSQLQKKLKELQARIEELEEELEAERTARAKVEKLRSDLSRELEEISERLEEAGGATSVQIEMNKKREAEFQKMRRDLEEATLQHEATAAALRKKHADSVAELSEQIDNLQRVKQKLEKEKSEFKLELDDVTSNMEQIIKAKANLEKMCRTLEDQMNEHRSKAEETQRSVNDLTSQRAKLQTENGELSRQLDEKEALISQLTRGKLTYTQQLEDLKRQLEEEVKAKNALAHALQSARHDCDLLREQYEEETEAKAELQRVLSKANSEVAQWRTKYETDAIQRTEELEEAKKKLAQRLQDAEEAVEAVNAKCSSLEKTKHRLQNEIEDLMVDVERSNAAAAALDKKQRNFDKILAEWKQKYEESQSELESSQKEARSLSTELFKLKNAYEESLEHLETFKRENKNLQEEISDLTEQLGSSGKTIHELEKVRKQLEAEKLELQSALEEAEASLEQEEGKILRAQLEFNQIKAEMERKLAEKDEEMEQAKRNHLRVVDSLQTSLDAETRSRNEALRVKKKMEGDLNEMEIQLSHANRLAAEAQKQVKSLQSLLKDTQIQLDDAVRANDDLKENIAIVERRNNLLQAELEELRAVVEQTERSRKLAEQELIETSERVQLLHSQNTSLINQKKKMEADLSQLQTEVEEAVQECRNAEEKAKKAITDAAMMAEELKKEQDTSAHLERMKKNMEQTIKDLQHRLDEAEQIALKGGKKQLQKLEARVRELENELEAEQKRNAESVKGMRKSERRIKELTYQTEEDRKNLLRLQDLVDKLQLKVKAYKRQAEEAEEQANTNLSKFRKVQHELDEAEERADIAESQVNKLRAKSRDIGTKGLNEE
T1 sequence (P85100 whole entry partner): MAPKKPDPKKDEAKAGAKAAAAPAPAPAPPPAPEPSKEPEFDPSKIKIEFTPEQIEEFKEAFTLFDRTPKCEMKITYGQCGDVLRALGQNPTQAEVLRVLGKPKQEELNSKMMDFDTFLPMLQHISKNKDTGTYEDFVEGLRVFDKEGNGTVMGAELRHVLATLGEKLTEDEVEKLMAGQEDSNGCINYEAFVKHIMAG
T1 sequence (Q3SZE5 whole entry partner): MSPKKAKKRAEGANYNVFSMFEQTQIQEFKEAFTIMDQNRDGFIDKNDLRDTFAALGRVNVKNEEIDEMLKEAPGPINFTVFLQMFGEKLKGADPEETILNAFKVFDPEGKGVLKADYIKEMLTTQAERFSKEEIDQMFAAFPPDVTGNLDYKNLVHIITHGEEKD

In general, IC50 refers to the point on the concentration scale where inhibition reaches its midpoint. With `CC(C)c1nc(-c2ccc3c(c2)CCC32COC(=O)N2)no1` (single isomer, unassigned) [Compound 32A], the “CDMF75 IC15” value was 1.5 µM and the IC50 amounted to 6.3 µM.

`CC(C)c1nc(-c2ccc3c(c2)CCC32COC(=O)N2)no1` (single isomer, unassigned) [Compound 32B]: the “CDMF75 IC15” value was >39.2 µM and the IC50 is > 39.2 µM.

Take `O=C1NC2(CCc3cc(-c4noc(C5CC5)n4)ccc32)CO1` (single isomer, unassigned) [Compound 35A]: the “CDMF75 IC15” value was >39.2 µM and the IC50 was > 39.2 µM.

For the compound `O=C1NC2(CCc3cc(-c4noc(C5CC5)n4)ccc32)CO1` (single isomer, unassigned) [Compound 35B], the “CDMF75 IC15” value was determined as 0.6 µM and the IC50 was 3.4 µM.

In the case of `O=C1NC2(CCc3cc(-c4noc(C(F)F)n4)ccc32)CO1` (single isomer, unassigned) [Compound 38A], the “CDMF75 IC15” value amounted to 1.8 µM and the IC50 came out at 7.5 µM.

Consider `O=C1NC2(CCc3cc(-c4noc(C(F)F)n4)ccc32)CO1` (single isomer, unassigned) [Compound 38B], for which the “CDMF75 IC15” value was >39.2 µM and the IC50 is > 39.2 µM.

Consider `CCc1nc(-c2ccc3c(c2)OCC32COC(=O)N2)no1` (single isomer, unassigned) [Compound 41A], for which the “CDMF75 IC15” value was determined as 0.2 µM and the IC50 is 1 µM.

In the case of `CCc1nc(-c2ccc3c(c2)OCC32COC(=O)N2)no1` (single isomer, unassigned) [Compound 41B], the “CDMF75 IC15” value is >39.2 µM and the IC50 was > 39.2 µM.

Take `CCc1nc(-c2ccc3c(c2)CCC3C(=O)Nc2cnn(C)c2)no1` (stereo not drawn) [Compound 1, 5-(5-ethyl-1,2,4-oxadiazol-3-yl)-N-(1-methyl-1H-pyrazol-4-yl)-2,3-dihydro-1H-indene-1-carboxamide]: the “CDMF75 IC15” value is 3.9 µM and the IC50 amounted to 15.9 µM.
